Test results published in patent US20260283988A1, “FERROPTOSIS INHIBITORS” (priority 2023, published 2026).
Like-named read-outs stand apart in the source and are kept apart here.

What was measured:
[1] = tested on: HT-1080-derived spheroids; test: 3D spheroid formation and imaging (roundness); assay type: cell-based, Human; conditions: 200 nM RSL3; 2 μM Fer-1; 6 μM Seratrodast, 48 h
Protocol: Over a period of 48 h spheroids were formed and subsequently treated with RSL3, and Ferrostatin-1 or Seratrodast. […] Images were acquired using an Operetta high-content imaging system (PerkinElmer) and analyses were conducted with the Columbus software (PerkinElmer). For analysis, spheroids were detected as “Image region” and morphology properties were calculated (roundness).

[2] = Cell-free BODIPY assay with AAPH; assay type: biochemical; conditions: 25 μM compound; 7.5 mM AAPH
Protocol: As a control, the same amount of DMSO was diluted in 150 μl PBS. […] For the non-oxidized control, one sample was prepared as DMSO only without AAPH. All three solutions were mixed equally and incubated for 30 min at room temperature in the dark.

[3] = tested on: HT-1080; test: Ferroptosis inhibition, cell viability assay (CellTiter-Glo); assay type: cell-based, Human; conditions: for IC50: read-out: IC50 (Ferroptosis inhibition); for cellular efficacy/toxicity window: cytotoxic IC50 versus ferroptosis inhibition IC50, 1080 min
Protocol: Cell lines: Human fibrosarcoma cell line HT-1080 and immortalized Mouse Embryonic Fibroblasts (MEF). MEFs were a gift from Daniel Krappmann, HT-1080 were purchased from ATCC and both cell lines were grown in Dulbecco's Modified Eagle's medium (Thermo Fisher Scientific, 41966-029) supplemented with 10% fetal bovine serum (FBS, Thermo Fisher Scientific), 1% Penicillin-Streptomycin (Thermo Fisher Scientific) and 1% nonessential amino acids (MEM NEAA, Thermo Fisher Scientific). Cells were grown at 37° C. and 5% CO2.
HT-1080 were seeded into 384-well plates (CulturPlates, PerkinElmer) with a density of 750 cells per well. After 24 h of growth, cells were treated with 10 or 12-point serial dilutions of compounds in indicated concentrations for 18 h. Viability was detected by using CellTiter-Glo® 2.0 Regent (Promega) according to the manufacturer's instruction and luminescence was read out in an EnVison 2104 Multilabel plate reader (PerkinElmer).

[4] = Cytotoxicity, cell viability assay; assay type: cell-based, Human; conditions: human, ht-1080 cells, * = signal quenching at higher concentration, toxicity might be less than indicated; read-out: cytotoxic IC50
Protocol: (§1) After 24 h of growth, cells were treated with 10 or 12-point serial dilutions of compounds in indicated concentrations for 18 h.

[5] = tested on: HT-1080; test: Apoptosis assay, Staurosporine-induced Caspase 3/7 activity (Caspase-Glo 3/7); assay type: cell-based, Human
Protocol: For detecting apoptosis, HT-1080 were treated with Staurosporine before addition of Seratrodast or zVAD-FMK. Caspase 3/7 activity was measured 18 hours later via Caspase-Glo® 3/7 Assay Reagent (Promega) according to the manufacturer's instruction. Cells were incubated for 45 min at room temperature and luminescence was measured.

[6] = tested on: Mouse Embryonic Fibroblasts (MEF); test: Necroptosis assay, TNFα + zVAD-FMK + LCL161, cell viability; assay type: cell-based
Protocol: For detecting necroptosis, MEF were treated with TNFα, zVAD-FMK and LCL161 before addition of Seratrodast or Necrostatin-1. Cell viability was measured after 18 hours by adding CellTiter-Glo® 2.0 Reagent (Promega) according to the manufacturer's instruction and luminescence was read out.

[7] = tested on: HT-1080; test: TBARS assay (MDA levels); assay type: cell-based, Human; conditions: 250 nM RSL3; 6 μM Seratrodast, 2.5 h
Protocol: 2 million HT-1080 cells were seeded into 150 mm dishes and grown for 48 hours. Ferroptosis was induced with RSL3 for 2.5 hours and cells were co-treated with Ferrostatin-1 or Seratrodast. Cells were detached by 0.05% Trypsin-EDTA (Thermo Fisher Scientific) and cell number was adjusted to the sample with the lowest cell count. For measuring MDA levels, TBARS (TCA Method) Assay Kit (Cayman Chemical, 700870) was used according to manufacturer's instruction. Fluorescence was detected at 530 nm/550 nm in an EnVision 2104 Multilabel plate reader (PerkinElmer).

[8] = tested on: HT-1080; test: Flow cytometry, BODIPY 581/591 C11 lipid peroxidation sensor; assay type: cell-based, Human; conditions: 200 nM RSL3; 6 μM Seratrodast, 2.5 h
Protocol: (§2) HT1080 cells were grown in 6-well plates (200,000 cells per well) and incubated for 24 h. For staining with BODIPY 581/591 C11 (Thermo Fisher Scientific), cells were treated with RSL3, and Ferrostatin-1 or Seratrodast for 2 h, then BODIPY was added into the wells to a final concentration of 2 μM. After 30 min incubation, cells were detached using Trypsin and washed two times with PBS. Between the wash steps, cells were centrifuged at 500×g for 5 minutes. After the final washing step, cell pellets were resuspended in 300 μl PBS and 10,000 events per condition were analyzed in the BL-1 channel of an Attune acoustic flow cytometer (Applied Biosystems). For detection of 4-Hydroxynonenal (4-HNE), HT-1080 were induced with RSL3, and co-treated with Ferrostatin-1 or Seratrodast for 2 h before they were detached using Trypsin. Cell pellets were incubated in 10% normal goat serum (Thermo Fisher Scientific) for 30 min on ice. Subsequently, cells were incubated with anti-4-HNE antibody (1:50 dilution in 1% BSA in PBS, ab46545, Abcam) for 1 h on ice. […] For flow cytometry, cells were collected in 300 μl PBS and 10,000 events per condition were analyzed in an Attune acoustic flow cytometer (Applied Biosystems), using the BL-1 channel. FlowJo™ v10.8.1 (BD Life Sciences) was used for creating histograms and analyzing fluorescence intensity.

[9] = tested on: HT-1080; test: Flow cytometry, 4-Hydroxynonenal (4-HNE) immunostaining; assay type: cell-based, Human; conditions: 300 nM RSL3; 6 μM Seratrodast, 2 h
Protocol: as §2

[10] = tested on: HT-1080; test: Cytotoxicity, cell viability assay; assay type: cell-based, Human; conditions: * = signal quenching at higher concentration, toxicity might be less than indicated; 1080 min; read-out: cytotoxic IC50
Protocol: as §1

[11] = Homo sapiens, HT-1080, based on the assays of example 1
[12] = based on the assays of example 1

Row | IC50 [3, 11] | Compound | cellular efficacy/toxicity window [3] | CC50 at 18 h [4] | Apoptosis inhibition [5] | Necroptosis inhibition [6] | other results
1 | 2.91 nM | CC1=C(Nc2ccc(C)cc2C)C(=O)c2ccccc2C1=O [iQFerr41, 2-[(2,4-dimethylphenyl)amino]-3-methyl-1,4-dihydronaphthalene-1,4-dione] | 4601-fold | 13.4 µM | no | no | –
2 | 116 nM | Cc1ccc(N(CCCCCC(N)=O)C2=CC(=O)c3ccccc3C2=O)c(C)c1 [iQFerr43, 6-[(2,4-dimethylphenyl)(1,4-dioxo-1,4-dihydronaphthalen-2-yl)amino]hexanamide] | 653-fold | 75.5 µM | no | no | –
3 | 30.9 nM | CC(=O)Nc1ccc(NC2=C(C(F)(F)F)C(=O)c3ccccc3C2=O)cc1 [iQFerr44, N-(4-{[1,4-dioxo-3-(trifluoromethyl)-1,4-dihydronaphthalen-2-yl]amino}phenyl) acetamide] | 1901-fold | 58.8 µM | – | no | –
4 | 1.56 nM | CC1=C(Nc2ccc(C)cc2)C(=O)c2ccccc2C1=O [iQFerr45, 2-methyl-3-[(4-methylphenyl)amino]-1,4-dihydronaphthalene-1,4-dione] | 25634-fold | 40 µM | – | – | –
5 | 2.11 nM | CC1=C(Nc2cc(C)cc(C)c2)C(=O)c2ccccc2C1=O [iQFerr46, 2-[(3,5-dimethylphenyl)amino]-3-methyl-1,4-dihydronaphthalene-1,4-dione] | 36758-fold | 77.6 µM | no | no | –
6 | 10.1 nM | Cc1ccc(NC2=C(C(F)(F)F)C(=O)c3ccccc3C2=O)c(C)c1 [iQFerr47, 2-[(2,4-dimethylphenyl)amino]-3-(trifluoromethyl)-1,4-dihydronaphthalene-1,4-dione] | 1458-fold | 14.7 µM | no | no | –
7 | 22.8 nM | CC(=O)Nc1ccc(N(CCCCCC(N)=O)C2=CC(=O)c3ccccc3C2=O)cc1 [iQFerr49, 6-[(1,4-dioxo-1,4-dihydronaphthalen-2-yl)(4-acetamidophenyl)amino] hexanamide] | 4895-fold | 112 µM | – | – | –

More lines, now with the values behind:

Row | Compound | IC50 [3, 11] | cellular efficacy/toxicity window [3] | CC50 at 18 h [4] | Apoptosis inhibition [5] | Necroptosis inhibition [6] | other results
8 | CCOC(=O)c1ccc(NC2CCCCC2)c(N)c1 [Ferrostatin-1] | – | – | – | – | – | inhibition of ferroptosis in 3D spheroid model (spheroid roundness) [1]: fully inhibited ferroptosis-based spheroid destruction; oxidative fluorescence induced by AAPH (cell-free C11-BODIPY) [2]: significantly reduced oxidative fluorescence
9 | CC1=C(C)C(=O)C(C(CCCCCC(=O)O)c2ccccc2)=C(C)C1=O (stereo not drawn) [iQFerr01, Seratrodast, reference compound] | 290 nM | 200-fold | 57.9 µM | no | no | suppression of ferroptosis (cell viability) ([3]; 100 nM RSL3 or 1.5 μM IKE for 18 h): dose-dependently suppresses ferroptosis; inhibition of ferroptosis induced by RSL3, IKE, FINO2 and FIN56 ([3]; 6 μM Seratrodast, 2 μM Fer-1, 18 h): able to suppress ferroptosis induced by all four FINs; inhibition of apoptosis ([5]; 6 μM, 1 μM Staurosporine, 18 h): does not inhibit apoptosis; inhibition of necroptosis ([6]; 6 μM, 20 ng/ml TNFα + 10 μM Z-VAD-FMK + 10 μM LCL161 for 18 h): does not inhibit necroptosis; inhibition of ferroptosis in 3D spheroid model (spheroid roundness) [1]: fully inhibited ferroptosis-based spheroid destruction; oxidative fluorescence induced by AAPH (cell-free C11-BODIPY) [2]: significantly reduced oxidative fluorescence; RSL3-induced malondialdehyde (MDA) levels [7]: eliminated levels of malondialdehyde; RSL3-mediated peroxidation of the C11-BODIPY sensor [8]: largely reduced; RSL3-induced 4-hydroxynonenal (4-HNE) levels [9]: reduced
10 | CC(=O)c1ccc(NC2=C(Cl)C(=O)c3ccccc3C2=O)cc1 [iQFerr02, NQ301] | 27 nM | 28-fold | 0.759 µM | – | no | –
11 | Cc1ccc(NC2=C(Cl)C(=O)c3ccccc3C2=O)c(C)c1 [iQFerr14, 2-chloro-3-(2,4-dimethylanilino)-1,4-naphtoquinone] | – | 5000-fold | – | – | – | IC50 [3, 12]: 0.034 nM; CC50 [10]: 1 µM
12 | CC(=O)Nc1ccc(NC2=CC(=O)c3ccccc3C2=O)cc1 [iQFerr20, N-[4-(1,4-dioxo-1,4-dihydronaphthalen-2-yl-amino)phenyl]acetamide] | 8.12 nM | 1254-fold | 10.2 µM | no | no | –
13 | O=C1C=C(C(c2ccccc2)c2ccccc2)C(=O)c2ccccc21 [iQFerr29, 2-diphenylmethyl-1,4-naphtoquinone] | 3.91 nM | 1277-fold | 4.99 µM | – | no | –
14 | Cc1ccc(NC2=C(Cl)C(=O)c3ccccc3C2=O)c(C)c1 [iQFerr35, 2-chloro-3-[(2,4-dimethylphenyl)amino]-1,4-dihydronaphthalene-1,4-dione] | – | 8051-fold | – | – | – | IC50 [3, 12]: 0.692 nM; CC50 [10]: 5.57 µM
15 | Cc1ccc(N(CCCCCC(=O)O)C2=CC(=O)c3ccccc3C2=O)c(C)c1 [iQFerr38, 6-[(2,4-dimethylphenyl)(1,4-dioxo-1,4-dihydronaphthalen-2-yl)amino]hexanoic acid] | 215 nM | 232-fold | 49.8 µM | no | no | –
16 | CC(=O)Nc1ccc(NC2=C(C)C(=O)c3ccccc3C2=O)cc1 [iQFerr39, N-{4-[(3-methyl-1,4-dioxo-1,4-dihydronaphthalen-2-yl)amino]phenyl} acetamide] | 17 nM | 2561-fold | 43.5 µM | no | no | –
